Laboratory results published in patent publication US7078195B2, “Antibiotics AA-896” (Wyeth Holdings Corporation, priority 2001, dated 2006).

Legend:
CNS GC 4537 = experiment: Broth dilution MIC; format: cell-based; conditions: Mueller-Hinton broth, 18 hours at 35° C.
How it was run: (§1)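 Compounds are serially diluted in Mueller-Hinton broth, then a bacterial suspension is added. After incubation at 35° C for 18 hours, the lowest inhibitory concentration is recorded as MIC.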

CNS GC 4538 = experiment: Broth dilution MIC; format: cell-based; conditions: Mueller-Hinton broth, 18 hours at 35° C.
How it was run: as §1

CNS GC 4547 = experiment: Broth dilution MIC; format: cell-based; conditions: Mueller-Hinton broth, 18 hours at 35° C.
How it was run: as §1

E. cloacae GC 3783 = experiment: Broth dilution MIC; format: cell-based; conditions: Mueller-Hinton broth, 18 hours at 35° C.
How it was run: as §1

E. coli GC 2203 = experiment: Broth dilution MIC; format: cell-based; conditions: Mueller-Hinton broth, 18 hours at 35° C.
How it was run: as §1

E. coli GC 3226 = experiment: Broth dilution MIC; format: cell-based; conditions: Mueller-Hinton broth, 18 hours at 35° C.
How it was run: as §1

E. coli GC 4559 = experiment: Broth dilution MIC; format: cell-based; conditions: Mueller-Hinton broth, 18 hours at 35° C.
How it was run: as §1

E. coli GC 4560 = experiment: Broth dilution MIC; format: cell-based; conditions: Mueller-Hinton broth, 18 hours at 35° C.
How it was run: as §1

E. faecalis GC 242 = experiment: Broth dilution MIC; format: cell-based; conditions: Mueller-Hinton broth, 18 hours at 35° C.
How it was run: as §1

E. faecalis GC 4555 = experiment: Broth dilution MIC; format: cell-based; conditions: Mueller-Hinton broth, 18 hours at 35° C.
How it was run: as §1

E. faecalis GC 842 = experiment: Broth dilution MIC; format: cell-based; conditions: Mueller-Hinton broth, 18 hours at 35° C.
How it was run: as §1

K. pneumoniae GC 4534 = experiment: Broth dilution MIC; format: cell-based; conditions: Mueller-Hinton broth, 18 hours at 35° C.
How it was run: as §1

M. morganii GC 4531 = experiment: Broth dilution MIC; format: cell-based; conditions: Mueller-Hinton broth, 18 hours at 35° C.
How it was run: as §1

P. aeruginosa GC 2214 = experiment: Broth dilution MIC; format: cell-based; conditions: Mueller-Hinton broth, 18 hours at 35° C.
How it was run: as §1

P. aeruginosa GC 4532 = experiment: Broth dilution MIC; format: cell-based; conditions: Mueller-Hinton broth, 18 hours at 35° C.
How it was run: as §1

P. rettgeri GC 4530 = experiment: Broth dilution MIC; format: cell-based; conditions: Mueller-Hinton broth, 18 hours at 35° C.
How it was run: as §1

S. aureus GC 1131 = experiment: Broth dilution MIC; format: cell-based; conditions: Mueller-Hinton broth, 18 hours at 35° C.
How it was run: as §1

S. aureus GC 2216 = experiment: Broth dilution MIC; format: cell-based; conditions: Mueller-Hinton broth, 18 hours at 35° C.
How it was run: as §1

S. aureus GC 4536 = experiment: Broth dilution MIC; format: cell-based; conditions: Mueller-Hinton broth, 18 hours at 35° C.
How it was run: as §1

S. marcescens GC 4077 = experiment: Broth dilution MIC; format: cell-based; conditions: Mueller-Hinton broth, 18 hours at 35° C.
How it was run: as §1

[1] = test system: Staphylococcus aureus Smith; experiment: Acute lethal infection in mice; format: in vivo
Method: (§2) The antibacterial efficacy of AA-896-A1 in vivo against acute lethal infection in mice is established by infecting mice with Staphylococcus aureus Smith or Streptococcus pneumoniae. The mice are treated with AA-896-A1.

Streptococcus pneumoniae = experiment: Acute lethal infection in mice; format: in vivo
Method: as §2

E. faecalis GC 2242 = experiment: Broth dilution MIC; format: cell-based; conditions: Mueller-Hinton broth, 18 hours at 35° C.
How it was run: as §1

| Molecule | Antimicrobial Activity (MIC) (CNS GC 4537) [µg/mL] | Antimicrobial Activity (MIC) (CNS GC 4538) [µg/mL] | Antimicrobial Activity (MIC) (CNS GC 4547) [µg/mL] | Antimicrobial Activity (MIC) (E. cloacae GC 3783) [µg/mL] | Antimicrobial Activity (MIC) (E. coli GC 2203) [µg/mL] | Antimicrobial Activity (MIC) (E. coli GC 3226) [µg/mL] | Antimicrobial Activity (MIC) (E. coli GC 4559) [µg/mL] | Antimicrobial Activity (MIC) (E. coli GC 4560) | Antimicrobial Activity (MIC) (E. faecalis GC 4555) [µg/mL] | Antimicrobial Activity (MIC) (E. faecalis GC 842) [µg/mL] | Antimicrobial Activity (MIC) (K. pneumoniae GC 4534) [µg/mL] | Antimicrobial Activity (MIC) (M. morganii GC 4531) [µg/mL] | Antimicrobial Activity (MIC) (P. aeruginosa GC 2214) [µg/mL] | Antimicrobial Activity (MIC) (P. aeruginosa GC 4532) [µg/mL] | Antimicrobial Activity (MIC) (P. rettgeri GC 4530) [µg/mL] | Antimicrobial Activity (MIC) (S. aureus GC 1131) [µg/mL] | Antimicrobial Activity (MIC) (S. aureus GC 2216) [µg/mL] | Antimicrobial Activity (MIC) (S. aureus GC 4536) [µg/mL] | Antimicrobial Activity (MIC) (S. marcescens GC 4077) [µg/mL] | further results |
| --- | --- | --- | --- | --- | --- | --- | --- | --- | --- | --- | --- | --- | --- | --- | --- | --- | --- | --- | --- | --- |
| 5-O-[5-Amino-5-deoxy-2-O-methyl-β-D-ribofuranosyl]-6-[[3-[3-[[13-(carbamimidoylhydroxy-amino)tridecanoyl]oxy]-2-[2-[[(1-carboxy-2-methylpropyl)carbamoyl]amino]-2-(hexahydro-2-iminopyrimidin-4-yl)acetamido]-4-methylpentanamido]propyl]amino]-1,6-dideoxy-1-(3,4-dihydro-2,4-dioxopyrimidin-1(2H)-yl)-β-D-heptofuranuronic acid [AA-896-A1] | 2 | 1 | 4 | 0.5 | 16 | 8 | 32 | <=0.03 μg/ml | 16 | 32 | >32 | >32 | 16 | 32 | >32 | 4 | 8 | 4 | >32 | Antimicrobial Activity (MIC) (E. faecalis GC 242): 32 µg/mL; ED50 range (95% confidence limit) [1]: 0.83 to 1.46 mg/kg; ED50 range (95% confidence limit) (Streptococcus pneumoniae): 8.0 to 16.0 mg/kg |
| CC(C)CC(NC(=O)C(NC(=O)NC(C(=O)O)C(C)C)C1CCNC(=N)N1)C(=O)NCCCNC(C(=O)O)C(OC1CC(O)C(CN)O1)C1OC(n2ccc(=O)[nH]c2=O)C(O)C1O [AA-896-D3, 5-O-[5-Amino-2,5-dideoxy-β-D-ribofuranosyl]-6-[[3-[2-[2-[[(1-carboxy-2-methylpropyl)-carbamoyl]amino]-2-(hexahydro-2-iminopyrimidin-4-yl)acetamido]-4-methylpentanamido]-propyl]amino]-1,6-dideoxy-1-(3,4-dihydro-2,4-dioxopyrimidin-1(2H)-yl)-β-D-heptofuran-uronic acid] | >32 | >32 | >32 | >32 | 32 | 32 | >32 | 0.25 µg/mL | >32 | >32 | >32 | >32 | 32 | >32 | >32 | >32 | >32 | >32 | >32 | Antimicrobial Activity (MIC) (E. faecalis GC 2242): >32 µg/mL |
